Source: publication PMC10468942, “A Fluorescent Probe as a Lead Compound for a Selective α-Synuclein PET Tracer: Development of a Library of 2-Styrylbenzothiazoles and Biological Evaluation of [^18F]PFSB and [^18F]MFSB” (ACS Omega, 2023)
Values joined by “and” are separate entries in the source; they are usually repeats but may differ in a detail not shown here. Identical values can stand only once.

molecular target: T1, αSYN fibrils (Homo sapiens, UniProt P37840); test: [^3H]PiB competition binding assay on αSYN fibrils; conditions: Ki, αSYN [^3H]PiB competition, mean Ki ± SEM, n = 3, or single determinations
T1 construct: cloning of the DNA construct encoding full-length αSYN into the pET-22b vector; made in house; host or cells: Escherichia coli BL21
Procedure: Following the cloning of the DNA construct encoding full-length αSYN into the pET-22b vector and its transformation into BL21 cells, the expression of human αSYN from a prokaryotic host was induced overnight in Escherichia coli at 20 °C with 0.5 mM IPTG. The cells were harvested by centrifugation, resuspended in 20 mM Tris-HCl pH 7.6, 25 mM NaCl and 1× complete protease inhibitor (Roche, Basel, Switzerland), and lysed by sonication. […] Anion exchange chromatography (HiTrap Q, GE Healthcare, Chicago, Illinois) was used to trap the produced αSYN, which was eluted with NaCl 0.1 M over 20 column volumes. Fractions containing αSYN were concentrated and further purified through a Superdex 75 SEC column equilibrated with PBS. […] A 4 mg/mL solution of αSYN in 20 mM K3PO4 pH 9.1 was placed in an orbital shaker at 37 °C, 1000 rpm for 5 days to prepare P91s. The assemblies were either sonicated with cycles of 20 s on and 10 s off at 50% amplitude (Q800R3, Qsonica) for a total of 10 min or directly aliquoted in volumes of 10 μL each stored at −80 °C until use. […] The final products were aliquoted, frozen on dry ice, and stored at −80 °C until use.
(§1) Concentrations of αSYN and Aβ1-42 fibrils were as described above.
(§2) Plates were incubated on a shaker (MaxQ 6000, Thermo Fisher Scientific, Inc., Marietta, OH) at 50 rpm for 2 h at 37 °C, covered by removable sealing tapes (PerkinElmer, Waltham, MA). Vacuum filtration and read-out were performed as previously reported.[17] […] Data points were fitted using nonlinear regression analysis in GraphPad Prism (GraphPad Software, Inc., Version 8.4.0, La Jolla).

| Ki [nM] | SMILES |
| --- | --- |
| 213 ± 122 | Fc1ccc2nc(C=CC=Cc3ccc(N4CCCCC4)cc3)sc2c1 [compound 43, 6-Fluoro-2-(4-(4-(piperidin-1-yl)phenyl)buta-1,3-dien-1-yl)benzo[d]thiazole] |
| < 20 | C[n+]1c(C=CC=Cc2ccc(N3CCCCC3)cc2)sc2ccccc21 [14b, 3-Methyl-2-(4-(4-(piperidin-1-yl)phenyl)buta-1,3-dien-1-yl)benzo[d]thiazol-3-ium Iodide] |
| 85 ± 41 | Fc1ccc2nc(C=CC=Cc3ccc(N4CCCC4)cc3)sc2c1 [compound 44, 6-Fluoro-2-(4-(4-(pyrrolidin-1-yl)phenyl)buta-1,3-dien-1-yl)benzo[d]thiazole] |

same assay, conditions: [^3H]PiB competition

| fold reduction of affinity compared to 14a [fold] | SMILES |
| --- | --- |
| ~3 | Fc1ccc2nc(C=CC=Cc3ccc(N4CCCCC4)cc3)sc2c1 [compound 43, 6-Fluoro-2-(4-(4-(piperidin-1-yl)phenyl)buta-1,3-dien-1-yl)benzo[d]thiazole] |

same assay, conditions: methylated compounds, Table 2; two values in a cell = single determinations; read-out: Ki

| Ki | SMILES |
| --- | --- |
| 234 nM and 177 nM | COc1cccc2c1sc(C=Cc1ccc(N3CCCCC3)cc1)[n+]2C [11b, 7-Methoxy-3-methyl-2-(4-(piperidin-1-yl)styryl)benzo[d]thiazol-3-ium Iodide] |
| 145 nM and 58.6 nM | C[n+]1c(C=Cc2ccc(N3CCCC3)cc2)sc2ccccc21 [17b, 3-Methyl-2-(4-(pyrrolidin-1-yl)styryl)benzo[d]thiazol-3-ium Iodide] |
| > 400 nM | CN(C)c1ccc(/C=C/c2sc3ccccc3[n+]2C)cc1 [19b, 2-(4-(Dimethylamino)styryl)-3-methylbenzo[d]thiazol-3-ium Iodide] |
| 19.7 nM and 9.6 nM | COc1ccc2c(c1)sc(C=Cc1ccc(N3CCCCC3)cc1)[n+]2C [8b, 6-Methoxy-3-methyl-2-(4-(piperidin-1-yl)styryl)benzo[d]thiazol-3-ium Iodide] |
| > 400 nM | C[n+]1c(/C=C/c2ccc(N3CCOCC3)cc2)sc2ccccc21 [15b, 3-Methyl-2-(4-morpholinostyryl)benzo[d]thiazol-3-ium Iodide] |
| 84.6 nM and 59.9 nM | Cc1ccc2sc(C=Cc3ccc(N4CCCCC4)cc3)[n+](C)c2c1 [4b, 3,5-Dimethyl-2-(4-(piperidin-1-yl)styryl)benzo[d]thiazol-3-ium Iodide] |
| 23 nM and 16.8 nM | C[n+]1c(C=CC=Cc2ccc(N3CCCCC3)cc2)sc2ccccc21 [14b, 3-Methyl-2-(4-(4-(piperidin-1-yl)phenyl)buta-1,3-dien-1-yl)benzo[d]thiazol-3-ium Iodide] |
| 435 nM and 268 nM | C[n+]1c(C=Cc2ccc(N3CCCCC3)cc2)sc2ccc(F)cc21 [6b, 5-Fluoro-3-methyl-2-(4-(piperidin-1-yl)styryl)benzo[d]thiazol-3-ium Iodide] |
| 36.1 nM and 83.9 nM | Cc1cccc2sc(/C=C/c3ccc(N4CCCCC4)cc3)[n+](C)c12 [1b, 3,4-Dimethyl-2-(4-(piperidin-1-yl)styryl)benzo[d]thiazol-3-ium 4-nitrobenzenesulfonate] |
| > 400 nM | C[n+]1c(/C=C/c2ccc(N3CCCCC3)cc2)sc2cccc(F)c21 [3b, 4-Fluoro-3-methyl-2-(4-(piperidin-1-yl)styryl)benzo[d]thiazol-3-ium 4-nitrobenzenesulfonate] |
| > 400 nM | C[n+]1c(C=Cc2ccc(N3CCC(F)CC3)cc2)sc2ccccc21 [18b, 2-(4-(4-Fluoropiperidin-1-yl)styryl)-3-methylbenzo[d]thiazol-3-ium Iodide] |
| > 400 nM | C[n+]1c(C=Cc2ccc(N3CCCCC3)cc2)sc2c(F)cccc21 [12b, 7-Fluoro-3-methyl-2-(4-(piperidin-1-yl)styryl)benzo[d]thiazol-3-ium Iodide] |
| 27.5 nM and 163 nM | COc1ccc2sc(C=Cc3ccc(N4CCCCC4)cc3)[n+](C)c2c1 [5b, 5-Methoxy-3-methyl-2-(4-(piperidin-1-yl)styryl)benzo[d]thiazol-3-ium Iodide] |
| > 400 nM | C[n+]1c(-c2ccc(N3CCCCC3)cc2)sc2ccccc21 [13b, 3-Methyl-2-(4-(piperidin-1-yl)phenyl)benzo[d]thiazol-3-ium] |
| 16.8 nM and 23.8 nM | Cc1ccc2c(c1)sc(C=Cc1ccc(N3CCCCC3)cc1)[n+]2C [7b, 3,6-Dimethyl-2-(4-(piperidin-1-yl)styryl)benzo[d]thiazol-3-ium Iodide] |
| 70.8 nM and 34.3 nM | COc1cccc2sc(C=Cc3ccc(N4CCCCC4)cc3)[n+](C)c12 [2b, 4-Methoxy-3-methyl-2-(4-(piperidin-1-yl)styryl)benzo[d]thiazol-3-ium Iodide] |
| > 400 nM | C[n+]1c(C=Cc2ccc(N3CCSCC3)cc2)sc2ccccc21 [16b, 3-Methyl-2-(4-thiomorpholinostyryl)benzo[d]thiazol-3-ium Iodide] |
| 231 nM and 63.9 nM | Cc1cccc2c1sc(C=Cc1ccc(N3CCCCC3)cc1)[n+]2C [10b, 3,7-Dimethyl-2-(4-(piperidin-1-yl)styryl)benzo[d]thiazol-3-ium Iodide] |
| 335 nM and 43.6 nM | C[n+]1c(C=Cc2ccc(N3CCCCC3)cc2)sc2cc(F)ccc21 [9b, 6-Fluoro-3-methyl-2-(4-(piperidin-1-yl)styryl)benzo[d]thiazol-3-ium Iodide] |

same assay, conditions: nonmethylated compounds, Table 1; two values in a cell = single determinations; a: mean Ki ± SEM of three data points; b: single data point; read-out: Ki

| Ki | SMILES |
| --- | --- |
| 230 nM and 218 nM | Cc1ccc2nc(C=Cc3ccc(N4CCCCC4)cc3)sc2c1 [7a, 6-Methyl-2-(4-(piperidin-1-yl)styryl)benzo[d]thiazole] |
| 233 nM and 88.1 nM | Cc1ccc2sc(C=Cc3ccc(N4CCCCC4)cc3)nc2c1 [4a, 5-Methyl-2-(4-(piperidin-1-yl)styryl)benzo[d]thiazole] |
| 110 nM and 103 nM | COc1ccc2nc(C=Cc3ccc(N4CCCCC4)cc3)sc2c1 [8a, 6-Methoxy-2-(4-(piperidin-1-yl)styryl)benzo[d]thiazole] |
| > 400 nM | Cc1cccc2nc(C=Cc3ccc(N4CCCCC4)cc3)sc12 [10a, 7-Methyl-2-(4-(piperidin-1-yl)styryl)benzo[d]thiazole] |
| 71.2 nM and 198 nM | Cc1cccc2sc(C=Cc3ccc(N4CCCCC4)cc3)nc12 [1a, 4-Methyl-2-(4-(piperidin-1-yl)styryl)benzo[d]thiazole] |
| 99.8 ± 32.6 nM | FC1CCN(c2ccc(C=Cc3nc4ccccc4s3)cc2)CC1 [18a, 2-(4-(4-Fluoropiperidin-1-yl)styryl)benzo[d]thiazole] |
| 187 nM and 110 nM | Fc1cccc2sc(C=Cc3ccc(N4CCCCC4)cc3)nc12 [3a, 4-Fluoro-2-(4-(piperidin-1-yl)styryl)benzo[d]thiazole] |
| 170 nM and 33.5 nM | C(=Cc1nc2ccccc2s1)c1ccc(N2CCCCC2)cc1 [compound 20, 2-(4-(Piperidin-1-yl)styryl)benzo[d]thiazole] |
| > 400 nM | COc1cccc2sc(C=Cc3ccc(N4CCCCC4)cc3)nc12 [2a, 4-Methoxy-2-(4-(piperidin-1-yl)styryl)benzo[d]thiazole] |
| > 400 nM | CN(C)c1ccc(C=Cc2nc3ccccc3s2)cc1 [19a, 4-(2-(Benzo[d]thiazol-2-yl)vinyl)-N,N-dimethylaniline] |
| 81.9 ± 15.6 nM | C(C=Cc1nc2ccccc2s1)=Cc1ccc(N2CCCCC2)cc1 [14a, 2-(4-(4-(Piperidin-1-yl)phenyl)buta-1,3-dien-1-yl)benzo[d]thiazole] |
| 219 nM and 58.6 nM | C(=Cc1nc2ccccc2s1)c1ccc(N2CCSCC2)cc1 [16a, 2-(4-Thiomorpholinostyryl)benzo[d]thiazole] |
| > 400 nM | COc1cccc2nc(C=Cc3ccc(N4CCCCC4)cc3)sc12 [11a, 7-Methoxy-2-(4-(piperidin-1-yl)styryl)benzo[d]thiazole] |
| 283 nM | Fc1cccc2nc(C=Cc3ccc(N4CCCCC4)cc3)sc12 [12a, 7-Fluoro-2-(4-(piperidin-1-yl)styryl)benzo[d]thiazole] |
| 128 nM and 188 nM | COc1ccc2sc(C=Cc3ccc(N4CCCCC4)cc3)nc2c1 [5a, 5-Methoxy-2-(4-(piperidin-1-yl)styryl)benzo[d]thiazole] |
| 169 nM and 124 nM | Fc1ccc2sc(C=Cc3ccc(N4CCCCC4)cc3)nc2c1 [6a, 5-Fluoro-2-(4-(piperidin-1-yl)styryl)benzo[d]thiazole] |

molecular target: T2, Aβ1-42 fibrils (Homo sapiens, UniProt P05067); test: [^3H]PiB competition binding assay on Aβ fibrils; conditions: Aβ1–42 fibrils
T2 construct: Synthetic lyophilized human Aβ1-42 peptide; purchased EMC Microcollections, Tuebingen, Germany; host or cells: synthetic peptide
T2 sequence (P05067 672-713 limits assumed): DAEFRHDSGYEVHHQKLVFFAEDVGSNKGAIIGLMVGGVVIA
Procedure: Following the cloning of the DNA construct encoding full-length αSYN into the pET-22b vector and its transformation into BL21 cells, the expression of human αSYN from a prokaryotic host was induced overnight in Escherichia coli at 20 °C with 0.5 mM IPTG. The cells were harvested by centrifugation, resuspended in 20 mM Tris-HCl pH 7.6, 25 mM NaCl and 1× complete protease inhibitor (Roche, Basel, Switzerland), and lysed by sonication. […] Anion exchange chromatography (HiTrap Q, GE Healthcare, Chicago, Illinois) was used to trap the produced αSYN, which was eluted with NaCl 0.1 M over 20 column volumes. Fractions containing αSYN were concentrated and further purified through a Superdex 75 SEC column equilibrated with PBS. […] A 4 mg/mL solution of αSYN in 20 mM K3PO4 pH 9.1 was placed in an orbital shaker at 37 °C, 1000 rpm for 5 days to prepare P91s. The assemblies were either sonicated with cycles of 20 s on and 10 s off at 50% amplitude (Q800R3, Qsonica) for a total of 10 min or directly aliquoted in volumes of 10 μL each stored at −80 °C until use. The method for Aβ1-42 fibrils generation was adapted from Bagchi et al. and described in Kuebler et al.[17],[27] […] Aggregation was induced by incubation in an Eppendorf Thermomixer at 37 °C with shaking at 800 rpm for 72 h. The resulting fibrils were sonicated for 3 min in a water bath (Elmasonic S 60 H, Elma Schmidbauer GmbH, Singen, Germany). The final products were aliquoted, frozen on dry ice, and stored at −80 °C until use.
as §1, §2

| competition with [^3H]PiB / binding to Aβ fibrils (in words) | SMILES |
| --- | --- |
| remained low | Fc1ccc2nc(C=CC=Cc3ccc(N4CCCCC4)cc3)sc2c1 [compound 43, 6-Fluoro-2-(4-(4-(piperidin-1-yl)phenyl)buta-1,3-dien-1-yl)benzo[d]thiazole] |
| remained low | Fc1ccc2nc(C=CC=Cc3ccc(N4CCCC4)cc3)sc2c1 [compound 44, 6-Fluoro-2-(4-(4-(pyrrolidin-1-yl)phenyl)buta-1,3-dien-1-yl)benzo[d]thiazole] |

| SMILES | competition with [^3H]PiB / binding to Aβ fibrils (in words) |
| --- | --- |
| C(C=Cc1nc2ccccc2s1)=Cc1ccc(N2CCCCC2)cc1 [14a, 2-(4-(4-(Piperidin-1-yl)phenyl)buta-1,3-dien-1-yl)benzo[d]thiazole] | None of the tested compounds appreciably competed against [^3H]PiB |
